Molecules are shown by their SMILES.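 Values below derive from 48-hour exposures of cells grown in 96-well plates, with endpoints linearly interpolated between the two concentrations bracketing the appropriate inhibition level. GI50 marks 50% less growth.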 Active and inactive are the calls of the source. Rule as the data show it: active = GI50 up to about 1.1 µM and inactive = higher.

Common to all, as to experiment: NCI anticancer screen, dose series, 48 h
Assay [1] deals with A498.
Assay [2] relates to BT-549.
Assay [3] concerns CCRF-CEM.
In assay [4] the test system is COLO 205.
The test system of assay [5] is HL-60.
Assay [6] relates to KM12.
Assay [7] deals with M14.
For assay [8], the system named is MCF7.
Assay [9] has as its system MOLT-4.
The test system of assay [10] is NCI-H460.
In assay [11] the test system is NCI/ADR-RES.
The subject of assay [12] is OVCAR-4.
Assay [13] relates to OVCAR-8.
Assay [14] relates to RXF 393.
In assay [15] the test system is SNB-78.
Assay [16] has as its system SR.
Assay [17] has as its system SW-620.
The subject of assay [18] is T47D.
The test system of assay [19] is TK-10.
Assay [20] has as its system UO-31.

Consider `C/C1=C\[C@@H](O)C(=O)/C=C/C=C\c2csc(n2)[C@@H](C)NC(=O)C[C@@]2(CC1)[S+]([O-])SC(=O)[C@]2(C)O` (stereo not given in full) [LEINAMYCIN], for which the GI50 was 0.01 µM (active) in assay [1]; 1.51 nM (active) in [2]; 0.00105 µM (active) in assay [3]; 0.0149 µM (active) in assay [4]; 0.000752 µM (active) in assay [5]; 0.0813 µM (active) in assay [6]. Also, the GI50 is 0.00692 µM (active) in assay [7]; 0.000499 µM (active) in assay [8]; 0.00486 µM (active) in assay [9]; 0.00986 µM (active) in assay [10]; 0.0137 µM (active) in [11]; 0.0217 µM (active) in [12]. In addition, the GI50 in assay [13] is 0.0174 µM (active); in [14] it was 0.0127 µM (active); in assay [15], 0.01 µM (active); in [16], 0.00327 µM (active); in assay [17], 0.00204 µM (active); in [18], 0.00102 µM (active). The values for the GI50 in assay [19] and in assay [20] were 0.0266 µM (active) and 0.0308 µM (active), respectively.

For `C/C1=C/C2OC(=O)C3(C)C2C(CC2(C)OC1=CC2=O)OC3(O)C(C)C` (stereo not given), the GI50 in [1] was 73.8 µM (inactive); in [2], 5200 nM (inactive); in [3], 23.6 µM (inactive); in [4] it was 36.6 µM (inactive); in assay [5], 18.7 µM (inactive); in assay [6], 27 µM (inactive). Moreover, the GI50 was 37 µM (inactive) in assay [7]; 43.7 µM (inactive) in assay [8]; 29.4 µM (inactive) in assay [9]; 42.5 µM (inactive) in [10]; 59 µM (inactive) in assay [11]; 25.1 µM (inactive) in assay [12]. In addition, the GI50 in assay [13] was 29 µM (inactive); in assay [14] it was > 37.4 µM (inactive); in assay [15] it was 35.2 µM (inactive); in assay [16], 22.6 µM (inactive); in assay [17], 23.7 µM (inactive); in assay [18], 58.2 µM (inactive). The GI50 is 41.5 µM (inactive) in assay [19] and 84.1 µM (inactive) in [20].

Source of the values: ChEMBL document CHEMBL1201862, “PubChem BioAssay data set” (2004).
